# Measured values reported in publication PMC2409936, “Phase I and pharmacokinetic study of XR11576, an oral topoisomerase I and II inhibitor, administered on days 1–5 of a 3-weekly cycle in patients with advanced solid tumours” (British Journal of Cancer, 2004).
# Where two headings read alike, the source gives them in different places.
# Key:
# [1] = rats; cited from earlier work
# [2] = Plasma pharmacokinetics in patients (LC-MS, noncompartmental analysis); assay type: in vivo, human; details: for AUC(0-inf) / AUC(0-t) / Cmax / Tmax / half-life: plasma, oral
# Procedure: For PK analysis, 58 blood samples (∼5 ml each) were obtained from an indwelling intravenous cannula and collected in vials containing lithium heparin as anticoagulant. The samples were taken immediately before dosing, 30 min and 1, 1.5, 2, 3, 4, 6, 8 and 10 h after administration of the drug on days 1 and 4 (or 5) of the first and second courses. Additional samples were taken immediately prior to dosing on days 2, 3, 4 and 5, and 24, 48, 72, 144 and 312 h after the dose administration on day 5, both in the first and second cycles. From the third cycle onwards, PK samples were taken prior to dosing on day 5 to measure the potential accumulation of XR11576.
# All samples were centrifuged immediately after sampling at 3000 r.p.m. for 10 min at 4°C and the plasma was stored at −20°C or lower in polypropylene tubes in the dark until analysis. A total of four urine samples were also collected over a 24-h period; 0–4, 4–8, 8–12 and 12–24 h post-dosing on day 1 of the first cycle only. Of the total amount collected, a measured quantity of 10 ml was drawn off and stored at −80°C until analysis. Concentrations of XR11576 in plasma were determined according to a validated liquid chromatography-mass spectrometry detection method with liquid–liquid extraction at the Drug Metabolism and Pharmacokinetics Department of Quintiles Limited (Internal Report at Quintiles). The lower limit of quantitation was 5 ng ml^−1.
# The apparent terminal half-life (T1/2(z)) of XR11576 was calculated as ln 2/k, where k is the terminal elimination rate constant (expressed in h^−1). The peak plasma concentrations (Cmax) and the time to peak plasma concentration (Tmax) were determined from the experimental values. The areas under the plasma concentration–time curve (AUC) of XR11576 were estimated using the experimental values (trapezoidal rule) with extrapolation to infinity (AUC0–∞) using the apparent terminal rate constant, defined as the slope of the final three to four data points of the log-linear concentration–time plot. The total body clearance (CL) was calculated as the ratio between the administered dose and the AUC0–∞. The extent of accumulation (R0) in plasma was calculated from AUC0–24 h (days 4 or 5)/AUC0–24 h (day 1). The fraction of the administered dose (Fe) excreted in urine and the cumulative amount of XR11576 excreted in urine (Ae) was determined. PK data analysis was carried out using a noncompartmental analysis approach with the aid of WinNonlin Version Pron4.0.1 (Pharsight, Cary NC 27511).
# A nonlinear power model was used to assess dose proportionality separately for each day during cycles 1 and 2. Statistical analyses were performed using SAS version 8.1.
# [3] = system: murine and human tumour cell lines; parameters: method as in Mistry et al, 2002; Lewis et al, 2003; details: murine leukaemias and human colon, breast, ovarian and lung carcinoma cell lines; ref Mistry et al, 2002; Lewis et al, 2003; cited from earlier work
# [4] = human, 30 mg day^−1, first treatment course, mean, N=3
# [5] = human, 60 mg day^−1, first treatment course, mean, N=4
# [6] = human, 120 mg day^−1, first treatment course, mean, N=8
# [7] = human, 150 mg day^−1, first treatment course, mean, N=3
# [8] = human, 180 mg day^−1, first treatment course, mean, N=3
compound,measurement,setting,value
"COc1cccc2c1ccc1nc3cccc(C(=O)N[C@H](C)CN(C)C)c3nc12 [XR11576, 4-methoxy-benzo[a]phenazine-11-carboxylic acid (2-dimethulamino-1-R-methyl-ethyl)-amide]",oral availability,[1],54±32%
same,R0 (ratio of accumulation),"[2]; 30 mg day^−1, first treatment course, mean, N=3",1.56
same,R0 (ratio of accumulation),"[2]; 60 mg day^−1, first treatment course, mean, N=4",1.87
same,R0 (ratio of accumulation),"[2]; 120 mg day^−1, first treatment course, mean, N=8",1.93
same,R0 (ratio of accumulation),"[2]; 150 mg day^−1, first treatment course, mean, N=3",1.53
same,R0 (ratio of accumulation),"[2]; 180 mg day^−1, first treatment course, mean, N=3",1.34
same,increase of systemic exposure with dose,[2]; 30–180 mg day^−1,greater than dose-proportional
same,time of maximum peak drug levels post dose,[2]; all patients,3.69 ± 0.79 h
same,accumulation in plasma: exposure higher by the last day of dosing,[2]; days 1–5 dosing,approximately two-fold
same,interpatient coefficients of variation in AUC values,"[2]; human, in vivo",> 100%
same,relationship between apparent CL/F and BSA,"[2]; human, in vivo",no relationship
same,AUC(0-inf),[2]; [4],50 ng·h/mL
same,AUC(0-t),[2]; [4],36.2 ng·h/mL
same,Cmax,[2]; [4],8.07 ng/mL
same,Tmax,[2]; [4],2.5 h
same,half-life,"[2]; human, 30 mg day^−1, first treatment course, mean, N=3, read-out: T1/2 (converted)",5.53 h
same,AUC(0-inf),[2]; [5],517 ng·h/mL
same,AUC(0-t),[2]; [5],178 ng·h/mL
same,Cmax,[2]; [5],21.7 ng/mL
same,Tmax,[2]; [5],3.5 h
same,half-life,"[2]; human, 60 mg day^−1, first treatment course, mean, N=4, read-out: T1/2 (converted)",68.8 h
same,AUC(0-inf),[2]; [6],535 ng·h/mL
same,AUC(0-t),[2]; [6],329 ng·h/mL
same,Cmax,[2]; [6],41.1 ng/mL
same,Tmax,[2]; [6],3.75 h
same,half-life,"[2]; human, 120 mg day^−1, first treatment course, mean, N=8, read-out: T1/2 (converted)",31.2 h
same,AUC(0-inf),[2]; [7],2240 ng·h/mL
same,AUC(0-t),[2]; [7],1710 ng·h/mL
same,Cmax,[2]; [7],167 ng/mL
same,Tmax,[2]; [7],4 h
same,AUC(0-inf),[2]; [8],1810 ng·h/mL
same,AUC(0-t),[2]; [8],970 ng·h/mL
same,Cmax,[2]; [8],112 ng/mL
same,Tmax,[2]; [8],4.67 h
same,half-life,"[2]; human, all dose levels, read-out: mean terminal half-life",≤ 70 h
same,antitumour activity in vitro,[3],exerted antitumour activity
